The values below come from US20250262305A1 (Aegis Therapeutics, LLC, priority 2018, published 2025).

Molecules are shown by their SMILES. Read-outs that look alike come from different tables or passages of the source.

For data set [1] the following is noted: male, human, in vivo. The protocol: In the Screening Period, subjects underwent screening within 28 days prior to entering into the study.
(§1) Study Drugs and Administration.
(§2) Each 100 μL spray was administered to the left nostril via a commercially-available multiple dose nasal spray device marketed by Aptar Pharma. Priming of the device (activation 5 times) was done in a hood or priming box within 30 minutes prior to dosing the subject.
Participants. […] Plasma samples from all subjects that complete the study were analyzed.
(§3) Pharmacokinetic Analysis.

For data set [2] the following is noted: cited from earlier work; for Cbaseline: Mean ± SD.
For data set [3] the following is noted: single 0.3 mg doses, intranasal and intramuscular; healthy volunteers.
Protocol: Safety. […] Other safety measures included vital sign measurement. Objective evaluations of nasal irritation were assessed after each administration of study drug using a 6-point (0->5) score. […] Irritation was assessed by evaluating the degree of mucosal inflammation and bleeding. The subjects were required to report any incident of bleeding or inflammation in-between the actual evaluation time points.
The ends of the scale were defined as extreme limits of pain sensation: 0=no pain, 10=extreme pain. The subjects were asked to mark a point on the scale which best describes their intensity of pain and discomfort just prior to dosing (baseline) and at 15 (±2 min) and 30 (±5 min) minutes, and 1 (±10 min) hour post dose. The location of the marking at each time point was measured and noted as the reported score.
Another data set in a line: clinical. Particulars: human, in vivo, pH 4, tmax. The protocol:
Study Design. A Phase 1, open-label, randomized, single-dose, two-treatment, crossover study was carried out that consisted of a screening period, baseline period, and an open-label treatment period. In the screening period, subjects underwent screening within 21 days prior to entering into the open-label treatment phase of the study.
Safety assessments were performed on each study day and subjects released after discharge assessments on Day 1. Subjects were followed for 6 hours after the administration of the last dose of study drug.
Plasma samples from all subjects that completed two periods of the study were analyzed. […] Actual sampling times were recorded.
as §1, §2, §3
Non-GCP pharmacokinetic analysis was performed using WinNonlin version 7.0. […] Baseline corrected Cmax was calculated from the uncorrected Cmax−PreDose concentration. Baseline corrected AUC0-t was calculated from the uncorrected AUC0-t−PreDose concentration×tlast. […] The point estimates and confidence limits will be exponentiated back to the original scale.

On to `CNC[C@H](O)c1ccc(O)c(O)c1` [Epinephrine, (R)-4-(1-Hydroxy-2-(methylamino)ethyl)benzene-1,2-diol], for which, in data set [1], the rate of absorption result is “rapid, IM-injection-like rate of absorption in the first 20 minutes”. Also, the Cbaseline was 35 ± 23 pg/mL in data set [2] (Intramuscular (IM) 0.3 mg) and 8 ± 6 pg/mL in data set [2] (Intranasal (IN) 5 mg). In data set [2] (Srisawat's 5 mg intranasal formulation (FIG. 2)), the “clearance from the plasma” value was “cleared from the plasma almost entirely in about two hours”. Also, the “blood level of epinephrine” value in data set [2] (intranasal dose level of 2.5 mg and below) is given as “no blood level of epinephrine”. For the same compound, in data set [2] (intranasal, dose range of Srisawat (FIG. 1)), the “systemic absorption of epinephrine via the IN route” value is recorded as “significant systemic absorption of epinephrine via the IN route was observed only at 5 mg”. Further, the adverse events entry in data set [3] was “no related adverse events reported”. Also, in “clinical”, the time of peak concentration (Tmax) was 53 min.
